Laboratory results taken from BindingDB's records for PubMed 9454827 (Sibia Neurosciences, 1998).

Key:
[1] = target: Neuronal acetylcholine receptor subunit alpha-2 (Homo sapiens, UniProt Q15822)
[2] = target: Neuronal acetylcholine receptor subunit alpha-4 (Homo sapiens, UniProt P43681)
[3] = target: Neuronal acetylcholine receptor subunit alpha-3 (Homo sapiens, UniProt P32297)
Chain of Neuronal acetylcholine receptor subunit alpha-3 (P32297 whole entry): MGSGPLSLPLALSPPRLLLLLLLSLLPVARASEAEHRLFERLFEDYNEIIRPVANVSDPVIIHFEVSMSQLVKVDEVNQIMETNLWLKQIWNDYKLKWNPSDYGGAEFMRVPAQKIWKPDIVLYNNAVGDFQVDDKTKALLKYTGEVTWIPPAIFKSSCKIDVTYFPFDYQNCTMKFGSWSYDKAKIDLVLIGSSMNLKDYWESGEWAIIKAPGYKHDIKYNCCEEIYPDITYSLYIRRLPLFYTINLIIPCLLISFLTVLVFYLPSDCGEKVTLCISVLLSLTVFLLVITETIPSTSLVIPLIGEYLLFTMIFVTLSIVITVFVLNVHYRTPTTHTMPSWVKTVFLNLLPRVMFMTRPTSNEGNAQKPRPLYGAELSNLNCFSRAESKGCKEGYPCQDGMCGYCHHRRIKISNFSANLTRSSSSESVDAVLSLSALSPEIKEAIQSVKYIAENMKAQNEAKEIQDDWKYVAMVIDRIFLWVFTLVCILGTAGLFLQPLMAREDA

Chain of Neuronal acetylcholine receptor subunit alpha-2 (Q15822 whole entry): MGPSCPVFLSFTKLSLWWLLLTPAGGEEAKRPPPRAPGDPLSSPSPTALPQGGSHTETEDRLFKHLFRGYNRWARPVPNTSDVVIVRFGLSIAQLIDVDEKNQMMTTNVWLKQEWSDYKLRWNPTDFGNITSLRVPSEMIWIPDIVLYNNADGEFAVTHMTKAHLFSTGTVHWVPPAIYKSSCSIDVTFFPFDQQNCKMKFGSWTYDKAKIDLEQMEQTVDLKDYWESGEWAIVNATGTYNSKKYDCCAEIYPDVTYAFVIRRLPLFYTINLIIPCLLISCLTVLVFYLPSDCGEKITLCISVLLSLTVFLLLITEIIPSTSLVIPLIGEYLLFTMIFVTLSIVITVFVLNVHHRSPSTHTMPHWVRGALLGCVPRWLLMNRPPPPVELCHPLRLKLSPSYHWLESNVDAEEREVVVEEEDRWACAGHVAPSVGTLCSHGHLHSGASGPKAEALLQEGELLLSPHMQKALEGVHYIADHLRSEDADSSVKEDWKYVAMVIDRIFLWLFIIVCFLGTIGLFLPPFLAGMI
Chain of Neuronal acetylcholine receptor subunit alpha-4 (P43681 whole entry): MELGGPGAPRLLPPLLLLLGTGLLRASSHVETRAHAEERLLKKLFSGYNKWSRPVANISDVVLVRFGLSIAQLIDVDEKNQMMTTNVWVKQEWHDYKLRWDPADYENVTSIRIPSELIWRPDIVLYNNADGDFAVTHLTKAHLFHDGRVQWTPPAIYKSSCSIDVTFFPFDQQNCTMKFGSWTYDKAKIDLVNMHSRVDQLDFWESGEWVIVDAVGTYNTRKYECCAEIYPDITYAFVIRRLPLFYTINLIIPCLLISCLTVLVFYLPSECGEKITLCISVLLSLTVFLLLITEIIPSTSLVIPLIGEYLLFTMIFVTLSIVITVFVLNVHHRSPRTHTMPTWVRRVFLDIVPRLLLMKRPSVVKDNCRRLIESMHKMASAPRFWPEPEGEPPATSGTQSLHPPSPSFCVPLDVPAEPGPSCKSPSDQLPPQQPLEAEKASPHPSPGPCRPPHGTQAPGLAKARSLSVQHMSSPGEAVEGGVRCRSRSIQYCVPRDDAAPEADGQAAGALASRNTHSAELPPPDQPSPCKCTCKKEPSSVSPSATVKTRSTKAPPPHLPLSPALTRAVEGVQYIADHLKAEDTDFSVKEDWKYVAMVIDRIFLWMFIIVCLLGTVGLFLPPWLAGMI

SMILES | Ki [1] [µM] | Ki [2] [µM] | Ki [3] [µM]
CO[C@@H]1CC=C2CCN3CCC4=C(CC(=O)OC4)[C@@]23C1 | 5.09 |  | 
O=c1cccc2n1C[C@H]1CNC[C@H]2C1 [(1S,9R)-7,11-diazatricyclo[7.3.1.0~2,7~]trideca-2,4-dien-6-one] |  | 0.515 | > 10
CN1CCC[C@H]1c1cccnc1 [(R,S)-nicotine] | 9.9 |  | 
COc1cc2c3cc1Oc1cc(ccc1O)C[C@H]1c4c(cc(OC)c(O)c4Oc4ccc(cc4)C[C@@H]3N(C)CC2)CC[N+]1(C)C [CAS_57-94-3] | 2.26 | 0.86 | 0.73
C[N+]1(C)CCN(c2ccccc2)CC1 [DMPP] | > 10 | > 10 | > 10
CNC1(C)C2CCC(C2)C1(C)C (stereo not given) [Methyl-(2,3,3-trimethyl-bicyclo[2.2.1]hept-2-yl)-amine(Mecamylamine)] | 3.06 | 0.56 | 
C[N+](C)(C)CCOC(=O)CCCCCCC(=O)OCC[N+](C)(C)C [NSC_123990] | 8.75 | 1.12 | > 10
